Results as given in patent US20240335465A1 (University of Virginia Patent Foundation, priority 2021, published 2024).

Columns and labels:
THP1 cells [1] = experiment: CellTiter 96 AQueous One Solution Cell Proliferation (MTS) assay; format: cell-based, human
Experimental: Cell Viability Assay: MTS assays were performed using the CellTiter 96 AQueous One Solution Cell Proliferation Assay (Promega) according to the manufacturer's instructions. […] 48 hours the later MTS assay was performed according the to manufacturer's protocol.

THP1 cells [2] = experiment: Quantitative RT-PCR gene expression in THP1 cells; format: cell-based, human
Source text: Quantitative RT-PCR analysis: Cells collected at indicated time points were washed with ice cold PBS and lysed in lml Trizol (Invitrogen). Total RNA extracted according to the manufacturer's recommendations was DNase treated and reverse transcribed to make cDNA with a QuantiTect Reverse Transcription kit (QIAGEN). The cDNAs synthesized were amplified by real-time quantitative PCR (Applied Biosystems 7900 HT Fast Real-Time PCR system) with Power SYBR green Master Mix. Relative gene expression was determined by the 2-ΔΔCt method, and 18S rRNA or GAPDH was used as an internal control. Primer details in Table 2.

**Q.** Nc1nc2c(ncn2[C@@H]2O[C@@H]3COP(=O)(O)O[C@H]4[C@@H](O)[C@H](n5cnc6c(N)ncnc65)O[C@@H]4COP(=O)(O)O[C@@H]2[C@@H]3O)c(=O)[nH]1 [cGAMP, cyclic guanosine monophosphate-adenosine monophosphate] was tested. Which “sensitization to IR in rucaparib-pretreated cells” value (THP1 cells [1]; WT THP1, 10 μM Rucaparib, 10Gy, 48 hours) did it give?
**A.** unable to further sensitize cells to IR

**Q.** What about the “sensitivity to ionizing radiation (cell survival)” value (THP1 cells [1]; WT THP1, 10Gy, 48 hours) of the same compound?
**A.** more sensitive to ionizing radiation (IR)

**Q.** And the THP1 cell proliferation (THP1 cells [1]; WT THP1 post cGAMP treatment)?
**A.** inhibited THP1 cell proliferation

**Q.** What about the “dependence of DDR gene induction on STING and TBK1” value (THP1 cells [2]; STING−/− THP1, 10 μM MRT67307 2 hours then cGAMP 6 hours) of the same compound?
**A.** dependent on STING and TBK1

**Q.** What about the “induction of IFN genes (IFN-β and ISGs)” value (THP1 cells [2]; THP1, exogenous cGAMP 1 μg vs transfected HT-DNA 2 μg) of the same compound?
**A.** comparable to that of cytosolic DNA-induced, endogenously produced cGAMP

**Q.** What about the CDKN1A/p21 transcript (THP1 cells [2]; WT THP1, 6 hours) of the same compound?
**A.** strong induction of CDKN1A/p21

**Q.** What about the “transcript abundance of E2F target genes” value (THP1 cells [2]; WT THP1, 6 hours) of the same compound?
**A.** decreased transcript abundance of E2F target genes
